Laboratory results published in ChEMBL document CHEMBL1146892, “Pyrrolidine bis-cyclic guanidines with antimicrobial activity against drug-resistant Gram-positive pathogens identified from a mixture-based combinatorial library” (2006).
Converted amounts (≈) assume the structure as drawn.

Assays:
Type in all cases: functional
[1] = system: Staphylococcus aureus; experiment: Antibacterial activity against methicillin-resistant Staphylococcus aureus ATCC 33591
[2] = system: Enterococcus faecalis; experiment: Antibacterial activity against vancomycin-resistant Enterococcus faecalis ATCC 51299
[3] = system: Escherichia coli; experiment: Antibacterial activity against Escherichia coli ATCC 25922

With `CC(C)Cc1ccc(C(C)CN2C(=N)N([C@@H](CC3CCCCC3)CN3CCCC3CN3C(N)=NC[C@@H]3C)C[C@H]2CC2CCCCC2)cc1` (stereo not given in full) the MBC [1] was less than 2.5 µg/mL, the MIC [1] was less than 2.5 µg/mL and the MBC [2] was greater than 10 µg/mL. It also gave an MIC [2] of less than 2.5 µg/mL, an MBC [3] greater than 10 µg/mL and an MIC [3] greater than 10 µg/mL.

`CC(C)Cc1ccc(C(C)CN2C(=N)N([C@@H](CC3CCCCC3)CN3CCCC3CN3C(N)=NC[C@@H]3Cc3ccccc3)C[C@H]2CC2CCCCC2)cc1` (stereo not given in full) was tested, and the MBC [1] was less than 2.5 µg/mL, the MIC [1] was less than 2.5 µg/mL and the MBC [2] was less than 2.5 µg/mL. It also gave an MIC [2] of less than 2.5 µg/mL, an MBC [3] greater than 10 µg/mL and an MIC [3] greater than 10 µg/mL.

`C[C@H]1CN=C(N)N1CC1CCCN1C[C@@H](Cc1ccc2ccccc2c1)N1C[C@H](CC2CCCCC2)N(CCc2cc(C(F)(F)F)cc(C(F)(F)F)c2)C1=N` (stereo not given in full) showed an MBC [1] of less than 2.5 µg/mL, an MIC [1] of less than 2.5 µg/mL and an MBC [2] of less than 2.5 µg/mL. It also gave an MIC [2] of less than 2.5 µg/mL, an MBC [3] of 5 µg/mL (≈ 6.49 µM) and an MIC [3] of 5 µg/mL (≈ 6.49 µM).

With `CCCC[C@@H]1CN([C@H](CC2CCCCC2)CN2CCCC2CN2C(N)=NC[C@@H]2C)C(=N)N1CC(C)c1ccc(CC(C)C)cc1` (stereo not given in full) the MBC [1] was 2.5 µg/mL (≈ 4.03 µM), the MIC [1] was less than 2.5 µg/mL and the MBC [2] was greater than 10 µg/mL. The MIC [2] was less than 2.5 µg/mL, the MBC [3] was greater than 10 µg/mL and the MIC [3] was greater than 10 µg/mL.

In the case of `N=C1N(CCc2cc(C(F)(F)F)cc(C(F)(F)F)c2)[C@H](CC2CCCCC2)CN1[C@H](Cc1ccc2ccccc2c1)CN1CCCC1CN1C(N)=NC[C@@H]1Cc1ccccc1` (stereo not given in full), the MBC [1] is reported as 2.5 µg/mL (≈ 2.96 µM), the MIC [1] is reported as less than 2.5 µg/mL and the MBC [2] is reported as greater than 10 µg/mL. For the same molecule, the MIC [2] was less than 2.5 µg/mL, the MBC [3] was greater than 10 µg/mL and the MIC [3] was greater than 10 µg/mL.

With `CCCC[C@@H]1CN([C@H](CC2CCCCC2)CN2CCCC2CN2C(N)=NC[C@@H]2Cc2ccccc2)C(=N)N1CCc1cc(C(F)(F)F)cc(C(F)(F)F)c1` (stereo not given in full) the MBC [1] was 2.5 µg/mL (≈ 3.28 µM), the MIC [1] was less than 2.5 µg/mL and the MBC [2] was less than 2.5 µg/mL. It also gave an MIC [2] of less than 2.5 µg/mL, an MBC [3] of 5 µg/mL (≈ 6.56 µM) and an MIC [3] of 5 µg/mL (≈ 6.56 µM).

With `CC(C)Cc1ccc(C(C)CN2C(=N)N([C@H](Cc3ccc4ccccc4c3)CN3CCCC3CN3C(N)=NC[C@@H]3Cc3ccccc3)C[C@H]2CC2CCCCC2)cc1` (stereo not given in full) the MBC [1] was 2.5 µg/mL (≈ 3.2 µM), the MIC [1] was less than 2.5 µg/mL and the MBC [2] was greater than 10 µg/mL. For the same molecule, the MIC [2] was less than 2.5 µg/mL, the MBC [3] was greater than 10 µg/mL and the MIC [3] was greater than 10 µg/mL.

`CCCC[C@@H]1CN([C@@H](CC2CCCCC2)CN2CCCC2CN2C(N)=NC[C@@H]2Cc2ccccc2)C(=N)N1CC(C)c1ccc(CC(C)C)cc1` (stereo not given in full) showed an MBC [1] of 2.5 µg/mL (≈ 3.59 µM), an MIC [1] of less than 2.5 µg/mL and an MBC [2] of less than 2.5 µg/mL. For the same molecule, the MIC [2] was less than 2.5 µg/mL, the MBC [3] was greater than 10 µg/mL and the MIC [3] was greater than 10 µg/mL.

With `CCCC[C@@H]1CN([C@@H](CC2CCCCC2)CN2CCCC2CN2C(N)=NC[C@@H]2Cc2ccccc2)C(=N)N1CCc1cc(C(F)(F)F)cc(C(F)(F)F)c1` (stereo not given in full) the MBC [1] was less than 2.5 µg/mL, the MIC [1] was less than 2.5 µg/mL and the MBC [2] was less than 2.5 µg/mL. It also gave an MIC [2] of less than 2.5 µg/mL, an MBC [3] greater than 10 µg/mL and an MIC [3] greater than 10 µg/mL.

In the case of `C[C@H]1CN=C(N)N1CC1CCCN1C[C@@H](CC1CCCCC1)N1C[C@H](CC2CCCCC2)N(CCc2cc(C(F)(F)F)cc(C(F)(F)F)c2)C1=N` (stereo not given in full), the MBC [1] is reported as 2.5 µg/mL (≈ 3.44 µM), the MIC [1] is reported as less than 2.5 µg/mL and the MBC [2] is reported as 2.5 µg/mL (≈ 3.44 µM). The MIC [2] was less than 2.5 µg/mL, the MBC [3] was 5 µg/mL (≈ 6.89 µM) and the MIC [3] was 5 µg/mL (≈ 6.89 µM).

With `N=C1N(CCc2cc(C(F)(F)F)cc(C(F)(F)F)c2)[C@H](CC2CCCCC2)CN1[C@H](CC1CCCCC1)CN1CCCC1CN1C(N)=NC[C@@H]1Cc1ccccc1` (stereo not given in full) the MBC [1] was less than 2.5 µg/mL, the MIC [1] was less than 2.5 µg/mL and the MBC [2] was 2.5 µg/mL (≈ 3.12 µM). The MIC [2] was 2.5 µg/mL (≈ 3.12 µM), the MBC [3] was greater than 10 µg/mL and the MIC [3] was greater than 10 µg/mL.

Work on `N=C1N(CCc2cc(C(F)(F)F)cc(C(F)(F)F)c2)[C@@H](CC2CCCCC2)CN1[C@@H](CC1CCCCC1)CN1CCCC1CN1C(N)=NC[C@@H]1Cc1ccccc1` (stereo not given in full) yielded an MBC [1] of less than 2.5 µg/mL, an MIC [1] of less than 2.5 µg/mL and an MBC [2] greater than 10 µg/mL. For the same molecule, the MIC [2] was less than 2.5 µg/mL, the MBC [3] was greater than 10 µg/mL and the MIC [3] was greater than 10 µg/mL.

Work on `CC(C)Cc1ccc(C(C)CN2C(=N)N([C@H](CC3CCCCC3)CN3CCCC3CN3C(N)=NC[C@@H]3C)C[C@H]2CC2CCCCC2)cc1` (stereo not given in full) yielded an MBC [1] of 2.5 µg/mL (≈ 3.79 µM), an MIC [1] of less than 2.5 µg/mL and an MBC [2] of less than 2.5 µg/mL. For the same molecule, the MIC [2] was less than 2.5 µg/mL, the MBC [3] was 5 µg/mL (≈ 7.58 µM) and the MIC [3] was 5 µg/mL (≈ 7.58 µM).

`CC(C)Cc1ccc(C(C)CN2C(=N)N([C@H](CC3CCCCC3)CN3CCCC3CN3C(N)=NC[C@@H]3Cc3ccccc3)C[C@@H]2CC2CCCCC2)cc1` (stereo not given in full) showed an MBC [1] of 2.5 µg/mL (≈ 3.4 µM), an MIC [1] of less than 2.5 µg/mL and an MBC [2] greater than 10 µg/mL. It also gave an MIC [2] of less than 2.5 µg/mL, an MBC [3] greater than 10 µg/mL and an MIC [3] greater than 10 µg/mL.

In the case of `N=C1N(CCc2cc(C(F)(F)F)cc(C(F)(F)F)c2)[C@@H](CC2CCCCC2)CN1[C@H](CC1CCCCC1)CN1CCCC1CN1C(N)=NC[C@@H]1Cc1ccccc1` (stereo not given in full), the MBC [1] is reported as less than 2.5 µg/mL, the MIC [1] is reported as less than 2.5 µg/mL and the MBC [2] is reported as greater than 10 µg/mL. The MIC [2] was 2.5 µg/mL (≈ 3.12 µM), the MBC [3] was greater than 10 µg/mL and the MIC [3] was greater than 10 µg/mL.

`CCCC[C@@H]1CN([C@@H](CC2CCCCC2)CN2CCCC2CN2C(N)=NC[C@@H]2C)C(=N)N1CC(C)c1ccc(CC(C)C)cc1` (stereo not given in full) showed an MBC [1] of 2.5 µg/mL (≈ 4.03 µM), an MIC [1] of 2.5 µg/mL (≈ 4.03 µM) and an MBC [2] greater than 10 µg/mL. For the same molecule, the MIC [2] was less than 2.5 µg/mL, the MBC [3] was greater than 10 µg/mL and the MIC [3] was greater than 10 µg/mL.

Work on `CCCC[C@@H]1CN([C@H](Cc2ccc3ccccc3c2)CN2CCCC2CN2C(N)=NC[C@@H]2Cc2ccccc2)C(=N)N1CC(C)c1ccc(CC(C)C)cc1` (stereo not given in full) yielded an MBC [1] of 2.5 µg/mL (≈ 3.38 µM), an MIC [1] of less than 2.5 µg/mL and an MBC [2] greater than 10 µg/mL. For the same molecule, the MIC [2] was less than 2.5 µg/mL, the MBC [3] was greater than 10 µg/mL and the MIC [3] was greater than 10 µg/mL.

With `CCCC[C@@H]1CN([C@H](Cc2ccc3ccccc3c2)CN2CCCC2CN2C(N)=NC[C@@H]2Cc2ccccc2)C(=N)N1CCc1cc(C(F)(F)F)cc(C(F)(F)F)c1` (stereo not given in full) the MBC [1] was less than 2.5 µg/mL, the MIC [1] was less than 2.5 µg/mL and the MBC [2] was greater than 10 µg/mL. For the same molecule, the MIC [2] was less than 2.5 µg/mL, the MBC [3] was greater than 10 µg/mL and the MIC [3] was greater than 10 µg/mL.

`CC(C)Cc1ccc(C(C)CN2C(=N)N([C@H](CC3CCCCC3)CN3CCCC3CN3C(N)=NC[C@@H]3C)C[C@@H]2CC2CCCCC2)cc1` (stereo not given in full) showed an MBC [1] of less than 2.5 µg/mL, an MIC [1] of less than 2.5 µg/mL and an MBC [2] greater than 10 µg/mL. The MIC [2] was less than 2.5 µg/mL, the MBC [3] was 5 µg/mL (≈ 7.58 µM) and the MIC [3] was 5 µg/mL (≈ 7.58 µM).

In the case of `CCCC[C@@H]1CN([C@H](CC2CCCCC2)CN2CCCC2CN2C(N)=NC[C@@H]2Cc2ccccc2)C(=N)N1CC(C)c1ccc(CC(C)C)cc1` (stereo not given in full), the MBC [1] is reported as less than 2.5 µg/mL, the MIC [1] is reported as less than 2.5 µg/mL and the MBC [2] is reported as less than 2.5 µg/mL. The MIC [2] was less than 2.5 µg/mL, the MBC [3] was greater than 10 µg/mL and the MIC [3] was greater than 10 µg/mL.

In the case of `CC(C)Cc1ccc(C(C)CN2C(=N)N([C@@H](CC3CCCCC3)CN3CCCC3CN3C(N)=NC[C@@H]3Cc3ccccc3)C[C@@H]2CC2CCCCC2)cc1` (stereo not given in full), the MBC [1] is reported as less than 2.5 µg/mL, the MIC [1] is reported as less than 2.5 µg/mL and the MBC [2] is reported as less than 2.5 µg/mL. It also gave an MIC [2] of less than 2.5 µg/mL, an MBC [3] greater than 10 µg/mL and an MIC [3] greater than 10 µg/mL.

`N=C1N(CCc2cc(C(F)(F)F)cc(C(F)(F)F)c2)[C@H](CC2CCCCC2)CN1[C@@H](CC1CCCCC1)CN1CCCC1CN1C(N)=NC[C@@H]1Cc1ccccc1` (stereo not given in full) gave an MBC [1] of less than 2.5 µg/mL, an MIC [1] of less than 2.5 µg/mL and an MBC [2] of less than 2.5 µg/mL. The MIC [2] was less than 2.5 µg/mL, the MBC [3] was 5 µg/mL (≈ 6.23 µM) and the MIC [3] was 5 µg/mL (≈ 6.23 µM).

For `C[C@H]1CN=C(N)N1CC1CCCN1C[C@H](CC1CCCCC1)N1C[C@H](CC2CCCCC2)N(CCc2cc(C(F)(F)F)cc(C(F)(F)F)c2)C1=N` (stereo not given in full), the MBC [1] was less than 2.5 µg/mL, the MIC [1] was less than 2.5 µg/mL and the MBC [2] was greater than 10 µg/mL. It also gave an MIC [2] of less than 2.5 µg/mL, an MBC [3] greater than 10 µg/mL and an MIC [3] greater than 10 µg/mL.

`CC(C)Cc1ccc(C(C)CN2C(=N)N([C@H](Cc3ccc4ccccc4c3)CN3CCCC3CN3C(N)=NC[C@@H]3C)C[C@H]2CC2CCCCC2)cc1` (stereo not given in full) was tested, and the MBC [1] was less than 2.5 µg/mL, the MIC [1] was less than 2.5 µg/mL and the MBC [2] was less than 2.5 µg/mL. For the same molecule, the MIC [2] was less than 2.5 µg/mL, the MBC [3] was greater than 10 µg/mL and the MIC [3] was greater than 10 µg/mL.

With `CC(C)Cc1ccc(C(C)CN2C(=N)N([C@H](CC3CCCCC3)CN3CCCC3CN3C(N)=NC[C@@H]3Cc3ccccc3)C[C@H]2CC2CCCCC2)cc1` (stereo not given in full) the MBC [1] was less than 2.5 µg/mL, the MIC [1] was less than 2.5 µg/mL and the MBC [2] was greater than 10 µg/mL. The MIC [2] was 2.5 µg/mL (≈ 3.4 µM), the MBC [3] was 5 µg/mL (≈ 6.79 µM) and the MIC [3] was 5 µg/mL (≈ 6.79 µM).
